The subject of data set [1] is histamine-induced bronchospasm. The conditions noted are these: F. L. Rose et al, J. Chem. Soc.; cited from earlier work.
In data set [2] the test system is 3',5'-Cyclic AMP Phosphodiesterase (PDE). The data set can be described thus: Inhibition of 3',5'-cyclic AMP phosphodiesterase (PDE) isolated from rabbit kidney, low affinity (Fraction I, high Km). Format: biochemical. The conditions noted are these: for IC50: cAMP approx. 5 × 10^-4 M.
A further data set has as its system male Swiss-Webster mice. The data set is described as follows: Potentiation of the depressant effects of sodium barbital, loss of the righting reflex in the mouse. It is filed as in vivo. As to the method:
This dose of barbital sodium (100 mg/kg) was then injected i.p. in a group of ten mice. Fifteen min. later the mice were injected i.p. with the dose of compound to be tested. […] Mice were tested at 15 min. intervals for one hour after injection of test compound. Responses were recorded on an all-or-none basis; loss of righting reflex for 5 min. or longer was the effective criteria.

A further data set has as its system male Sprague-Dawley rats. The data set can be described thus: Antianxiety activity: stimulation of drinking activity of the rat in a passive avoidance behavioral paradigm. Format: in vivo. The conditions noted are these: for minimal effective dose: read-out: Dose wherein the first statistically behavioral difference (p<0.05 or less) from the control group occurs; for ED50: read-out: ED50 (dose producing 50% of maximum effect). The procedure: In Tables V and VI the antianxiety activity of the listed compounds is measured as a function of the compounds ability to stimulate drinking activity of the rat in a passive avoidance behavioral paradigm. For these tests male Sprague-Dawley rats weighing 175 to 200 grams were water deprived for 48 hr. and placed in environmental chambers in which water was available with a punishment contingency. Each accumulated 3 sec. of contact with the drinking tube caused a constant current source (1.2 mA DC) to be applied to the drinking tube for 2 sec. Test sessions were 5 min. in duration, commencing with delivery of the first shock. Twelve rats were treated orally 1 hr. or intraperitoneally 30 min. prior to testing. The tests are scored based on the number of shocks accepted by the treated animals at a specific dose and were compared to twelve saline control animals tested on the same day.
In Table V the activity is expressed as an ED50. The ED50 is the dose of the compound in mg/kg producing 50% of maximum effect and is shown for both oral (p.o.) and interperitoneal (i.p.) routes of administration.
In Table VI the activity is expressed as the dose (i.p.) wherein the first statistically behavioral difference (p<0.05 or less) from the control group occurs. Included for comparison are the commonly prescribed antianxiety drugs, chlordiazepoxide and diazepam.

Data set [3] can be described thus: Potentiation of the depressant effects of ethanol, loss of the righting reflex in the mouse. The following applies: po. As to the method:
For this test male Swiss-Webster mice weighing 18 to 20 grams were food deprived 18 hours prior to the experiment. […] Drugs were given orally in 20 ml/kg of 1% CMC. Ethanol (5 gm/kg p.o.) was given 30 minutes after drug injection. Immediately after treatment animals were placed in individual clear plastic containers.
The righting reflex was recorded as being present when the animal would voluntarily roll to its side when placed on its back. Animals were tested for righting reflex every 15 minutes.

Data set [4] has as its system 3',5'-Cyclic AMP Phosphodiesterase (PDE). The data set is described as follows: Inhibition of 3',5'-cyclic AMP phosphodiesterase (PDE) isolated from rabbit lung, low affinity (Fraction I, high Km). It is filed as biochemical. The conditions noted are these: for IC50: cAMP approx. 5 × 10^-4 M.
In data set [5] the test system is 3',5'-Cyclic-AMP phosphodiesterase (PDE). The data set is described as follows: Inhibition of PDE from rabbit lung, high affinity (Fraction II, low Km). Format: biochemical. The following applies: cAMP 1.6 × 10^-7 M, relative to theophylline.
Data set [6] has the same test system. The data set is described as follows: Inhibition of PDE from beef heart, high affinity (Fraction II, low Km). Format: biochemical. The conditions noted are these: cAMP 1.6 × 10^-7 M, relative to theophylline.
Another data set deals with phosphodiesterase. The following applies: cited from earlier work.
The test system of the next data set is central nevous system. The following applies: in vivo; cited from earlier work.
Where [7] appears, read: i.p., 15 min after sodium barbital 100 mg/kg i.p.
Where [8] appears, read: ip, 0.5 h, i.p., 30 min prior to testing.

Values joined by “and” are separate entries in the source; they are usually repeats but may differ in a detail not shown here. Equal entries are not always repeated. Where two headings read alike, the source gives them in different places.

For `CCCc1nc(C)cc2nc(N)nn12` [COMPOUND 1], the “Protection from histamine-induced bronchospasm” value in [1] is recorded as “capable of protecting animals from histamine-induced bronchospasm”. In addition, the “α (relative inhibitory activity as compared with theophylline)” value in [2] came to 0.14. In addition, the IC50 in data set [2] (read-out: I50) amounted to 1600 µM.

Take `CCOC(=O)c1cnn2c(C)cc(C)nc12` [COOC2 H5]: in [2], the “α (relative inhibitory activity as compared with theophylline)” value is 0.22. Besides, in data set [2] (read-out: I50), the IC50 came to 1000 µM.

The NOAEL is the highest tested level that showed no adverse finding. For `CNC1=Nc2ccc(Cl)cc2C(c2ccccc2)=[N+]([O-])C1` [Chlordiazepoxide, chlordiazepoxide, reference compound], the “Dose of compound which produced loss of righting reflex in 50% of treated animals” value in the data set with male Swiss-Webster mice (setting [7]) amounted to 6.4 ± 0.4 mg/kg. In addition, the minimal effective dose with male Sprague-Dawley rats (ip, 0.5 h) turned out to be 10 mg/kg. Besides, the no-observed-adverse-effect level (NOAEL) in data set [3] (in vivo) was found to be 4 mg/kg.

As to `CN1C(=O)CN=C(c2ccccc2)c2cc(Cl)ccc21` [Diazepam, diazepam, reference compound], the “Dose of compound which produced loss of righting reflex in 50% of treated animals” value in the data set on male Swiss-Webster mice (setting [7]) worked out at 0.5 ± 0.8 mg/kg. Also, in the data set on male Sprague-Dawley rats (ip, 0.5 h), the minimal effective dose came out at 20 mg/kg.

Broadly, the ED50 is the dose that gives a 50% effect, or the effect in half of the subjects. For the molecule `Cc1cc(C)n2ncc(Br)c2n1` [Example I, 3-Bromo-5,7-dimethyl pyrazolo[1,5-a]pyrimidine], the results for the “α (relative inhibitory activity as compared with theophylline)” value in [4] and in data set [2] were 2.4 and 2.20, respectively. Moreover, the IC50 turned out to be 270 µM in data set [4] (read-out: I50) and 100 µM in data set [2] (read-out: I50). Moreover, the “Dose of compound which produced loss of righting reflex in 50% of treated animals” value with male Swiss-Webster mice (mouse, in vivo, ip) was 61.9 ± 12.1 mg/kg. For the same molecule, the “α Lung” value in [5] was determined as 0.7. Besides, the “α Heart” value in data set [6] is 1.7. For the same molecule, the ED50 with male Sprague-Dawley rats (setting [8]) amounted to 10.5 ± 0.8 mg/kg; with male Sprague-Dawley rats (po, 1 hr prior to testing) it was 9.5 ± 3.5 mg/kg. Further, the minimal effective dose in the data set with male Sprague-Dawley rats (ip, 0.5 h, i.p.) was found to be 10 mg/kg. In data set [3] (mouse), this molecule yielded an NOAEL of 400 mg/kg.

Regarding `Cc1cc(C)n2nccc2n1` [H, 5,7-dimethyl pyrazolo[1,5-a]pyrimidine, reference compound], the “α (relative inhibitory activity as compared with theophylline)” value is given as 0.32 in data set [4] and 0.20 in [2]. For the same molecule, the IC50 was determined as 2000 µM in data set [4] (read-out: I50) and 800 µM in [2] (read-out: I50). The “Dose of compound which produced loss of righting reflex in 50% of treated animals” value with male Swiss-Webster mice (mouse, in vivo, ip) came out at 118.8 ± 15.7 mg/kg. In addition, the ED50 in the data set with male Sprague-Dawley rats (setting [8]) is 20.9 ± 4.6 mg/kg; in the data set on male Sprague-Dawley rats (po, 1 hr prior to testing), 43.6 ± 6.1 mg/kg. The minimal effective dose with male Sprague-Dawley rats (ip, 0.5 h, i.p.) came to 40 mg/kg. For the same molecule, in data set [3] (mouse), the NOAEL came out at 300 mg/kg.

For `Cc1cc(C)n2ncc(Cl)c2n1` [II, 3-Chloro-5,7-dimethyl pyrazolo[1,5-a]pyrimidine], the “α (relative inhibitory activity as compared with theophylline)” value stood at 3.1 in data set [4] and 1.33 in data set [2]. Besides, the IC50 stood at 210 µM in data set [4] (read-out: I50) and 240 µM in [2] (read-out: I50). In addition, the “Dose of compound which produced loss of righting reflex in 50% of treated animals” value with male Swiss-Webster mice (mouse, in vivo, ip) was 60.9 ± 20.8 mg/kg. The “α Lung” value in data set [5] was 2.2. For the same molecule, the “α Heart” value in [6] is 1.7. Further, the ED50 was determined as 2.4 ± 4.3 mg/kg with male Sprague-Dawley rats (setting [8]) and 7.8 ± 4.5 mg/kg in the data set on male Sprague-Dawley rats (po, 1 hr prior to testing). Also, in the data set with male Sprague-Dawley rats (ip, 0.5 h, i.p.), the minimal effective dose came to 10 mg/kg. The same molecule displayed an NOAEL in [3] (mouse) of 200 mg/kg.

For the molecule `Cc1cc(C)n2ncc(I)c2n1` [III, 5,7-Dimethyl 3-iodo pyrazolo[1,5-a]pyrimidine], the “α (relative inhibitory activity as compared with theophylline)” value was 3.5 in data set [4] and 1.23 in data set [2]. In addition, the IC50 in data set [4] (read-out: I50) amounted to 210 µM; in [2] (read-out: I50), 130 µM. For the same molecule, the “Dose of compound which produced loss of righting reflex in 50% of treated animals” value in the data set with male Swiss-Webster mice (mouse, in vivo, ip) was 142.8 ± 10.1 mg/kg. The “α Lung” value in [5] turned out to be 3.5. Moreover, the “α Heart” value in data set [6] was determined as 1.5. In addition, the ED50 with male Sprague-Dawley rats (setting [8]) turned out to be 10.1 ± 6.8 mg/kg; with male Sprague-Dawley rats (po, 1 hr prior to testing) it was 95.9 ± 11.7 mg/kg. Further, the minimal effective dose in the data set on male Sprague-Dawley rats (ip, 0.5 h, i.p.) is 20 mg/kg. Further, in data set [3] (mouse), the no-observed-adverse-effect level (NOAEL) turned out to be 200 mg/kg.

With `Cc1cc(C)n2ncc(F)c2n1` [IV, 5,7-Dimethyl 3-fluoro pyrazolo[1,5-a]pyrimidine], in the data set with male Swiss-Webster mice (mouse, in vivo, ip), the “Dose of compound which produced loss of righting reflex in 50% of treated animals” value was 148.5 ± 4.5 mg/kg. The ED50 came to 40.7 ± 11.9 mg/kg in the data set with male Sprague-Dawley rats (setting [8]) and 76.2 ± 10.8 mg/kg in the data set on male Sprague-Dawley rats (po, 1 hr prior to testing). For the same molecule, the minimal effective dose in the data set with male Sprague-Dawley rats (ip, 0.5 h, i.p.) was 40 mg/kg. In addition, in data set [3] (mouse), the NOAEL was 100 mg/kg.

With `CCc1cc(C)nc2c(Br)cnn12` [XIV, 3-Bromo-7-ethyl-5-methylpyrazolo[1,5-a]pyrimidine], the “α Lung” value in data set [5] is 7.5. Besides, the “α Heart” value in data set [6] is 4.0.

With `CCCc1cc(C)nc2c(Br)cnn12` [XV, 3-Bromo-5-methyl-7-n-propylpyrazolo[1,5-a]pyrimidine], the “α Lung” value in data set [5] is listed as 7.5. In addition, in [6], the “α Heart” value worked out at 6.5.

For the molecule `CCc1cc(CC)n2ncc(Br)c2n1` [XVI, 3-Bromo-5,7-diethylpyrazolo[1,5-a]pyrimidine], the “α Lung” value in [5] is given as 7.4. Besides, the “α Heart” value in data set [6] amounted to 6.0.

As for `CCCc1cc(CCC)n2ncc(Br)c2n1` [XVII, 3-Bromo-5,7-di-n-propylpyrazolo[1,5-a]pyrimidine], the “α Lung” value in data set [5] is 5.5. For the same molecule, the “α Heart” value in [6] was determined as 3.0.

Turning to `CCCc1nc(C)cn2c(N)nnc12` [compound 2], in [1], the “Protection from histamine-induced bronchospasm” value was “capable of protecting animals from histamine-induced bronchospasm”.

Consider `Cn1c(=O)c2[nH]cnc2n(C)c1=O` [theophylline], for which the IC50 in [4] (theophylline reference run of each compound line, read-out: I50 (Theophylline)) was 640 µM and 740 µM. In the data set on phosphodiesterase, the “Selectivity of phosphodiesterase inhibition” value is listed as “does not selectively inhibit phosphodiesterase”. Also, in the data set on central nevous system, the Cardiovascular effects result is given as “rapid beating” and the “Central nervous system effect” value is on record as “gives general stimulation to the central nevous system”. Moreover, the IC50 in data set [2] (theophylline reference run of each compound line, read-out: I50 (theophylline)) is 160 µM and 220 µM and 320 µM.

The values above are taken from patent publication US4093617A, “3,5,7-Trisubstituted pyrazolo[1,5-a]pyrimidines” (ICN Pharmaceuticals, Inc., priority 1976, dated 1978).
